55 compounds from ChEMBL document CHEMBL1142906, “Structure-activity relationships of novel piperazines as antagonists for the melanocortin-4 receptor” (Bioorg Med Chem, 2007) can be followed below.

In the assay the target is Melanocortin receptor 4 (Homo sapiens, UniProt P32245). Kind of assay: Displacement of [125I]Nle4-D-Phe7-alpha-MSH from human MC4 receptor expressed in COS1 cells. Format: cell-based, COS-1. (In a radioligand displacement assay an active substance lowers the binding of a labelled ligand.)
Sequence of Melanocortin receptor 4 (P32245 whole entry): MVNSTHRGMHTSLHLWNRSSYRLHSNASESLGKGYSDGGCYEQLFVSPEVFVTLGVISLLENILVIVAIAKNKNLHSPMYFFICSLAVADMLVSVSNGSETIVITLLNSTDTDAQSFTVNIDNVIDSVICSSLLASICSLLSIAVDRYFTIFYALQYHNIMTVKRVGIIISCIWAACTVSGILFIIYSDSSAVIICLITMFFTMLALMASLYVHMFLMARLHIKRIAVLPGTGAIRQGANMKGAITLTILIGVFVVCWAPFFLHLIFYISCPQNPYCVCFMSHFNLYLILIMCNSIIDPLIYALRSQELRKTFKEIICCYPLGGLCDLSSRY
By IC50 is commonly meant the concentration that gives 50% inhibition. Low readings indicate higher potency, high ones lower potency. `CN1CCN(C(CN2CCN(CCCCc3cccc4ccccc34)CC2)c2ccc(C(F)(F)F)cc2)CC1` (racemic) gave an IC50 of 226 nM. The value for `COc1cccc(-c2ccccc2)c1CCCN1CCN(CC(c2ccc(F)cc2)N2CCN(C(C)C)CC2)CC1` (racemic) was 15.2 nM; that for `CN1CCN(C(CN2CCN(CCCc3ccc4ccccc4c3)CC2)c2ccc(F)cc2)CC1` (racemic) was 1190 nM.

With `COc1ccc2ccccc2c1CCCCN1CCN(CC(c2ccc(F)cc2)N2CCN(C(C)C)CC2)CC1` (stereo in doubt; (+)-10bg), the IC50 was determined as 22 nM. To `Cc1ccc(C(CN2CCN(CCCCc3cccc4ccccc34)CC2)N2CCN(C)CC2)cc1` (racemic) belongs 296 nM; to `COc1ccc(CCCCN2CCN(CC(c3ccc(F)cc3)N3CCN(C)CC3)CC2)c2ccccc12` (racemic), 228 nM; to `CC(C)N1CCN(C(CN2CCN(CCCc3ccccc3-c3ccccc3F)CC2)c2ccc(F)cc2)CC1` (racemic), 36.8 nM. The value for `CC(C)N1CCN(C(CN2CCN(CCCCc3c(Br)ccc4ccccc34)CC2)c2ccc(F)cc2)CC1` (racemic) was 36.8 nM. The value for `COc1ccc2ccccc2c1CCCCN1CCN(CC(c2ccc(F)cc2)N2CCN(C(C)C)CC2)CC1` (racemic) was 12.7 nM. `COc1ccc(C(CN2CCN(CCCCc3cccc4ccccc34)CC2)N2CCN(C)CC2)cc1` (racemic) returned an IC50 of 871 nM. The value for `COc1ccc2ccccc2c1CCCCN1CCN(CC(c2ccc(F)cc2)N2CCN(C(C)(C)C)CC2)CC1` (racemic) was 18 nM; that for `Fc1ccc(C(CN2CCN(CCCCc3cccc4ccccc34)CC2)N2CCNCC2)cc1` (racemic) was 303 nM; that for `CC(C)N1CCN(C(CN2CCN(CCCc3cccc(-c4ccccc4)c3)CC2)c2ccc(F)cc2)CC1` (racemic) was 156 nM.

For `CN1CCN(C(CN2CCN(CCCCc3cccc4ccccc34)CC2)c2ccc(F)cc2)CC1` (racemic), the IC50 stood at 118 nM.

Compound `CC(C)N1CCN(C(CN2CCN(CCCc3ccc(-c4ccccc4)cc3)CC2)c2ccc(F)cc2)CC1` (racemic) displayed an IC50 of 243 nM. The value for `CN1CCN(C(CN2CCN(CCCCCCc3cccc4ccccc34)CC2)c2ccc(F)cc2)CC1` (racemic) was 341 nM; that for `CC(C)N1CCN(C(CN2CCN(CCCc3ccccc3-c3ccc(N(C)C)cc3)CC2)c2ccc(F)cc2)CC1` (racemic) was 92.5 nM; that for `COc1ccc2ccccc2c1CCCCN1CCN(CC(c2ccc(F)cc2)N2CCN(C)CC2)CC1` (racemic) was 57.3 nM.

In turn, `Fc1ccc(C(CN2CCN(CCCCc3cccc4ccccc34)CC2)N2CCN(C3CCCCC3)CC2)cc1` (racemic) yielded an IC50 of 241 nM.

In turn, `CN1CCN(C(CN2CCN(CCCCc3cccc4ccccc34)CC2)c2ccccc2Br)CC1` (racemic) had an IC50 of 2300 nM. The value for `Fc1ccc(C(CN2CCN(CCCCc3cccc4ccccc34)CC2)N2CCN(C3CC3)CC2)cc1` (racemic) was 147 nM.

Regarding `CN1CCN(C(CN2CCN(CCc3cccc4ccccc34)CC2)c2ccc(F)cc2)CC1` (racemic), the IC50 was found to be 567 nM. `CC(C)N1CCN(C(CN2CCN(CCCc3ccccc3-c3ccc(Cl)cc3)CC2)c2ccc(F)cc2)CC1` (racemic) had an IC50 of 53.2 nM. In turn, `COc1ccc2ccccc2c1CCCCN1CCN(CC(c2ccc(F)cc2)N2CCN(C(C)C)CC2)CC1` (single isomer, unassigned; (-)) came in with an IC50 of 8.13 nM. The value for `CC(C)N1CCN(C(CN2CCN(CCCCc3ccccc3-c3ccccc3)CC2)c2ccc(F)cc2)CC1` (racemic) was 65.1 nM; that for `CN1CCN(C(CN2CCN(Cc3ccc4ccccc4c3)CC2)c2ccc(F)cc2)CC1` (racemic) was 1250 nM.

Compound `CC(C)Oc1ccc2ccccc2c1CCCCN1CCN(CC(c2ccc(F)cc2)N2CCN(C(C)C)CC2)CC1` (racemic) came in with an IC50 of 22 nM. `CN1CCN(C(CN2CCN(CCCCc3cccc4ccccc34)CC2)c2ccc(N)cc2)CC1` (racemic): the IC50 was 3590 nM. To `CN1CCN(C(CN2CCN(CCCCc3cccc4ccccc34)CC2)c2cccc(Br)c2)CC1` (racemic) belongs 565 nM; to `CN1CCN(C(CN2CCN(CCCCc3ccc4ccccc4c3)CC2)c2ccc(F)cc2)CC1` (racemic), 336 nM. The value for `CN1CCN(C(CN2CCN(Cc3cccc4ccccc34)CC2)c2ccc(F)cc2)CC1` (racemic) was 594 nM; that for `CC(C)N1CCN(C(CN2CCN(CCCc3ccccc3-c3ccc(C(F)(F)F)cc3)CC2)c2ccc(F)cc2)CC1` (racemic) was 62.8 nM; that for `CN1CCN(C(CN2CCN(CCCCc3cccc4ccccc34)CC2)c2ccc(-c3ccccc3)cc2)CC1` (racemic) was 756 nM.

For the compound `CN1CCN(C(CN2CCN(CCCCc3cccc4ccccc34)CC2)c2cccc(F)c2)CC1` (racemic), the IC50 stood at 653 nM. To `CC(C)N1CCN(C(CN2CCN(CCc3ccccc3-c3ccccc3)CC2)c2ccc(F)cc2)CC1` (racemic) belongs 186 nM; to `CCN1CCN(C(CN2CCN(CCCCc3cccc4ccccc34)CC2)c2ccc(F)cc2)CC1` (racemic), 105 nM.

`COc1ccc(-c2ccccc2CCCN2CCN(CC(c3ccc(F)cc3)N3CCN(C(C)C)CC3)CC2)cc1` (racemic) had an IC50 of 42.6 nM. Consider `CCOc1ccc2ccccc2c1CCCCN1CCN(CC(c2ccc(F)cc2)N2CCN(C(C)C)CC2)CC1` (racemic), for which the IC50 is 26 nM. To `CN1CCN(C(CN2CCN(CCCCc3cccc4ccccc34)CC2)c2ccc([N+](=O)[O-])cc2)CC1` (racemic) belongs 263 nM; to `CN1CCN(C(CN2CCN(CCCCc3cccc4ccccc34)CC2)c2ccc(Br)cc2)CC1` (racemic), 159 nM; to `CN1CCN(C(CN2CCN(CCCCc3cccc4ccccc34)CC2)c2ccccc2)CC1` (racemic), 745 nM. To `CC(C)N1CCN(C(CN2CCN(CCCCc3cccc4ccccc34)CC2)c2ccc(F)cc2)CC1` (racemic) belongs 72.3 nM; to `Fc1ccc(C(CN2CCN(CCCCc3cccc4ccccc34)CC2)N2CCN(c3ccccc3)CC2)cc1` (racemic), greater than 10000 nM; to `CC(C)N1CCN(C(CN2CCN(CCCc3ccccc3-c3ccc(OC(F)(F)F)cc3)CC2)c2ccc(F)cc2)CC1` (racemic), 85.9 nM. To `CCC(CC)N1CCN(C(CN2CCN(CCCCc3c(OC)ccc4ccccc34)CC2)c2ccc(F)cc2)CC1` (racemic) belongs 82.8 nM; to `CN1CCN(C(CN2CCN(CCc3ccc4ccccc4c3)CC2)c2ccc(F)cc2)CC1` (racemic), 1870 nM. For the compound `CCCN1CCN(C(CN2CCN(CCCCc3cccc4ccccc34)CC2)c2ccc(F)cc2)CC1` (racemic), the IC50 amounted to 177 nM. The value for `CN1CCN(C(CN2CCN(CCCCCc3cccc4ccccc34)CC2)c2ccc(F)cc2)CC1` (racemic) was 218 nM. To `CC(C)N1CCN(C(CN2CCN(CCCc3ccccc3-c3ccc(-c4ccccc4)cc3)CC2)c2ccc(F)cc2)CC1` (racemic) belongs 228 nM; to `CN1CCN(C(CN2CCN(CCCCc3cccc4ccccc34)CC2)c2ccc(Cl)cc2)CC1` (racemic), 132 nM; to `CC(C)N1CCN(C(CN2CCN(CCCc3ccccc3-c3ccc(C(C)(C)C)cc3)CC2)c2ccc(F)cc2)CC1` (racemic), 100 nM. The value for `CN1CCN(C(CN2CCN(CCCc3cccc4ccccc34)CC2)c2ccc(F)cc2)CC1` (racemic) was 208 nM; that for `CC(C)N1CCN(C(CN2CCN(CCCCc3c(O)ccc4ccccc34)CC2)c2ccc(F)cc2)CC1` (racemic) was 131 nM. Compound `COc1ccc2ccccc2c1CCCCN1CCN(CC(c2ccc(F)cc2)N2CCN(C3CCCC3)CC2)CC1` (racemic) showed an IC50 of 47.2 nM.

`Cc1ccc(-c2ccccc2CCCN2CCN(CC(c3ccc(F)cc3)N3CCN(C(C)C)CC3)CC2)cc1` (racemic) displayed an IC50 of 41.8 nM.
